“Also recorded” adds a separate entry of the source.
System: C-terminal domain of RNA polymerase II (serine 2 and serine 5 phosphorylation)
Experiment: Immunoblotting of RNA polymerase II CTD phosphorylation (CDK9 activity in cells), MCF-7
Type: cell-based, human
Settings: MCF-7 cells
Method: Effect of compounds on CDK9 activity in cells was monitored by site-specific phosphorylations of C-terminal domain of RNA polymerase II, a substrate of CDK9, by means of immunoblotting. For immunoblotting, cell were detached with rubber policeman and washed three times with ice-cold PBS and lysed in buffer (50 mM Tris, pH 7.4, 250 mM NaCl, 5 mM EDTA, 50 mM NaF, 1 mM Na3VO4, 1% Nonidet P40) containing mixture of protease and phosphatase inhibitors (Sigma-Aldrich, USA). 20 μg of total proteins were separated by SDS-polyacrylamide gel electrophoresis (SDS-PAGE) and transferred onto nitrocellulose membranes. Membranes were blocked in 5% milk and 0.1% Tween 20 in PBS and probed overnight with specific monoclonal antibodies or rabbit polyclonal sera. Primary antibodies specific for RNA polymerase II (all from Santa Cruz Biotechnology, California, USA) included: (i) N-20 used at 1 μg/ml, (ii) H14, specific for form phosphorylated at phosphoserine 5, used at 6 μg/ml and (iii) H5, specific for form phosphorylated at phosphoserine 2 used at 4 μg/ml. […] All primary antibodies were diluted in PBS containing 5% powdered milk; 0.1% Tween 20. Peroxidase conjugated rabbit anti-mouse immunoglobulin or porcine anti-rabbit immunoglobulin antisera (DAKO, Denmark) were used as the secondary antibodies and visualised with ECL reagents (Amersham-Pharmacia, Little Chalfont, UK). […]

CCC(CO)Nc1nc(NCc2cccc(OC)c2O)c2ncn(C(C)C)c2n1 (racemic) [Compound 128, (RS)-2-({6-[(2-hydroxy-3-methoxybenzyl)amino]-9-isopropyl-9-H-purin-2-yl}amino)butan-1-ol]
levels of serine 2 and serine 5 phosphorylation of RNA polymerase II CTD: substantially reduced; also recorded: is inhibited
